# Experimental data taken from the supplement of paper PMC10307832.
# Legend:
# Assay in all cases: relative viability (nuclei count vs DMSO), 5 days (fraction); higher = more cells survive
# KN-93 + AZD7762 = compound: CN(C/C=C/C1=CC=C(C=C1)Cl)CC2=CC=CC=C2N(CCO)S(=O)(=O)C3=CC=C(C=C3)OC [KN-93] + NC(=O)Nc1cc(-c2cccc(F)c2)sc1C(=O)N[C@H]1CCCNC1 [AZD7762] (partner 0.2 µM)
# Procedure, shortened: (§1)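 Relative viability divides the nuclei count in treated wells by that in vehicle wells. Lung cancer cell lines were seeded in 1536-well plates, dosed by pin tool the next day, and fixed and stained after 5 days in one step with final 0.05% Triton X-100, 1% formaldehyde and 1 ug/ml Hoechst. Dosing was a single drug or a fixed anchor-drug dose plus five library-drug doses (not always all listed) in √10 steps, and values are medians of duplicate plates imaged at 4×.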
# KN-93 + Dasatinib = compound: CN(C/C=C/C1=CC=C(C=C1)Cl)CC2=CC=CC=C2N(CCO)S(=O)(=O)C3=CC=C(C=C3)OC [KN-93] + Cc1nc(Nc2ncc(C(=O)Nc3c(C)cccc3Cl)s2)cc(N2CCN(CCO)CC2)n1 [Dasatinib] (partner 0.075 µM)
# Procedure, shortened: as §1
# KN-93 + Trametinib = compound: CN(C/C=C/C1=CC=C(C=C1)Cl)CC2=CC=CC=C2N(CCO)S(=O)(=O)C3=CC=C(C=C3)OC [KN-93] + CC(=O)Nc1cccc(-n2c(=O)n(C3CC3)c(=O)c3c(Nc4ccc(I)cc4F)n(C)c(=O)c(C)c32)c1 [Trametinib] (partner 0.02 µM)
# Procedure, shortened: as §1
# KN-93 + Palbociclib = compound: CN(C/C=C/C1=CC=C(C=C1)Cl)CC2=CC=CC=C2N(CCO)S(=O)(=O)C3=CC=C(C=C3)OC [KN-93] + CC(=O)c1c(C)c2cnc(Nc3ccc(N4CCNCC4)cn3)nc2n(C2CCCC2)c1=O [Palbociclib] (partner 0.5 µM)
# Procedure, shortened: as §1
# KN-93 + Tozasertib = compound: CN(C/C=C/C1=CC=C(C=C1)Cl)CC2=CC=CC=C2N(CCO)S(=O)(=O)C3=CC=C(C=C3)OC [KN-93] + Cc1cc(Nc2cc(N3CCN(C)CC3)nc(Sc3ccc(NC(=O)C4CC4)cc3)n2)n[nH]1 [Tozasertib] (partner 0.1 µM)
# Procedure, shortened: as §1
Cell Line,relative viability (KN-93 + AZD7762; first compound 0.08 µM),relative viability (KN-93 + AZD7762; first compound 0.253 µM),relative viability (KN-93 + AZD7762; first compound 2.53 µM),relative viability (KN-93 + AZD7762; first compound 8 µM),relative viability (KN-93 + Dasatinib; first compound 0.08 µM),relative viability (KN-93 + Dasatinib; first compound 0.253 µM),relative viability (KN-93 + Dasatinib; first compound 2.53 µM),relative viability (KN-93 + Dasatinib; first compound 8 µM),relative viability (KN-93 + Trametinib; first compound 0.08 µM),relative viability (KN-93 + Trametinib; first compound 0.253 µM),relative viability (KN-93 + Trametinib; first compound 2.53 µM),relative viability (KN-93 + Trametinib; first compound 8 µM),relative viability (KN-93 + Palbociclib; first compound 0.08 µM),relative viability (KN-93 + Palbociclib; first compound 0.253 µM),relative viability (KN-93 + Palbociclib; first compound 2.53 µM),relative viability (KN-93 + Palbociclib; first compound 8 µM),relative viability (KN-93 + Tozasertib; first compound 0.08 µM),relative viability (KN-93 + Tozasertib; first compound 0.253 µM),relative viability (KN-93 + Tozasertib; first compound 2.53 µM),relative viability (KN-93 + Tozasertib; first compound 8 µM)
NCI-H1703,0.117,0.115,0.105,0.153,,,,,,,,,,,,,,,,
201T,0.616,0.707,0.658,0.619,0.604,0.421,0.533,0.342,0.714,0.754,0.711,0.599,0.359,0.376,0.367,0.306,0.916,0.99,0.819,0.508
NCI-H596,1,1.08,1.11,0.845,0.607,0.642,0.587,0.421,0.708,0.847,0.836,0.586,,,,,0.783,1.02,1.06,0.747
SK-LU-1,,,,,0.192,0.179,0.188,0.17,0.46,0.594,0.51,0.317,0.439,0.451,0.41,0.314,0.337,0.349,0.322,0.278
NCI-H650,0.984,0.996,1.23,0.978,0.465,0.526,0.417,0.355,0.933,1.08,0.998,0.794,0.314,0.307,0.327,0.271,0.738,0.762,0.694,0.523
LC-2-ad,0.775,0.958,0.953,0.785,0.74,0.571,0.523,0.329,0.794,0.989,0.88,0.75,0.491,0.517,0.529,0.452,0.444,0.393,0.483,0.389
NCI-H1792,0.583,0.504,0.683,0.353,0.651,0.681,0.973,0.633,0.277,0.441,0.487,0.275,0.401,0.649,0.796,0.605,,,,
HCC-827,0.195,0.159,0.191,0.186,0.279,0.302,0.233,0.275,0.539,0.546,0.491,0.426,0.591,0.492,0.845,0.422,0.445,0.492,0.404,0.337
NCI-H2009,,,,,0.326,0.29,0.236,0.159,0.319,0.283,0.271,0.188,0.244,0.204,0.217,0.196,0.689,0.764,0.692,0.493
